For the test, the system named is engineered Str^r mutant E. coli ORN 208. The experiment in a line: minimal inhibitory concentration (MIC) against streptomycin-resistant E. coli. It counts as cell-based, Escherichia coli. The protocol:
The diverse particle size affects inhibition and control. Silica nanoparticles were synthesized with an average of 80, 50 and 30 nm. Streptomycin was conjugated via photocoupling method through perfluorophenyl azide (PFPA) chemistry. The MIC for free streptomycin sulfate was recorded as a high 2.0 mg/mL for an engineered Str^r mutant E. coli ORN 208.
It is reasonable to hypothesize that the more nanoparticles internalize into the bacteria the greater the effect of the antibiotic. […] The comparative difference of the streptomycin that can exert MIC is shown in FIG. 9 for the engineered Str^r mutant E. coli ORN 208 .

Where a name gives a salt, the structure may show the parent alone.

As to `[H]/N=C(/N)N[C@H]1[C@H](O)[C@@H](O)[C@H](O[C@@H]2O[C@@H](C)[C@](O)(C=O)[C@H]2O[C@@H]2O[C@@H](CO)[C@H](O)[C@@H](O)[C@@H]2NC)[C@@H](N/C(N)=N\[H])[C@@H]1O` [free streptomycin sulfate, Streptomycin sulfate], the MIC (Escherichia coli, read-out: minimum inhibitory concentration (MIC)) turned out to be 2000 µg/mL. Further, the “minimum inhibitory concentration (MIC)” value (streptomycin resistant E. coli, MIC as streptomycin) amounted to 2000 µg/mL.

These data come from patent US20160045612A1, “FUNCTIONALIZED NANOPARTICLES FOR MEDICAL TREATMENTS” (UNIVERSITY OF MASSACHUSETTS, priority 2013, published 2016).
